Source: ChEMBL document CHEMBL4396870, “Pharmacological Chaperones for the Treatment of α-Mannosidosis” (J Med Chem, 2019)
Changes are numbered by the printed parent chain.

Experiments:
[1] = test system: T1, Lysosomal alpha-mannosidase (Homo sapiens), O00754 [L352P]; assay: Chaperone activity at human Lysosomal alpha-mannosidase L352P mutant transfected in human […] knockout HAP1 cells assessed as enzyme activity enhancement at 20 uM incubated for 96 hrs relative to control
T1 sequence (whole entry): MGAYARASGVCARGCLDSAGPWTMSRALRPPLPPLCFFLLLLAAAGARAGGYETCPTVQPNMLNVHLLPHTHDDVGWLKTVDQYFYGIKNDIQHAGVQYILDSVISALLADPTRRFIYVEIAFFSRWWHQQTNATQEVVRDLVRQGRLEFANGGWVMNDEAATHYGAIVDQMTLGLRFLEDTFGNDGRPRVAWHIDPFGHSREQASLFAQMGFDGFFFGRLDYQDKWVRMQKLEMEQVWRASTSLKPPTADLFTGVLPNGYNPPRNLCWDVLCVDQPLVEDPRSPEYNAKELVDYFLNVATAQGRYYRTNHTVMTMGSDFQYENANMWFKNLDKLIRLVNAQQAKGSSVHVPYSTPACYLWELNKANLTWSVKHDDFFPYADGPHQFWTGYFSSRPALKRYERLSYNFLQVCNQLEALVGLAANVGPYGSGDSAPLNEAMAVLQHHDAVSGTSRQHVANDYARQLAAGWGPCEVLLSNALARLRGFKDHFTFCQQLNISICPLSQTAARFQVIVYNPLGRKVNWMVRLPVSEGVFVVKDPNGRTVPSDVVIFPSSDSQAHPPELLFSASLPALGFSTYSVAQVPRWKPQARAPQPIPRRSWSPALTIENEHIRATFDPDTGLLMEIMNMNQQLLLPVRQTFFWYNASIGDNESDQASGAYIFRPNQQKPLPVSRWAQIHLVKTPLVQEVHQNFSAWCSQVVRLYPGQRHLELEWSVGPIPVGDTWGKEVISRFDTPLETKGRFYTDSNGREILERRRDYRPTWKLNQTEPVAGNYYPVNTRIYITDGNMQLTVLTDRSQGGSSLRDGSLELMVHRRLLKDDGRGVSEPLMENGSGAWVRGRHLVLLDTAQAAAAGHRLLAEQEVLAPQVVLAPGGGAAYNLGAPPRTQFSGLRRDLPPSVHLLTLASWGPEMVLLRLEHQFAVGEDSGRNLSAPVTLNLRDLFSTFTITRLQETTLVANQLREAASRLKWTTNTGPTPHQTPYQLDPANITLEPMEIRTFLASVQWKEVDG

[2] = test system: T2, Lysosomal alpha-mannosidase (Homo sapiens), O00754 [R916C]; assay: Chaperone activity at human Lysosomal alpha-mannosidase R916C mutant transfected in human […] knockout HAP1 cells assessed as enzyme activity enhancement at 2 uM incubated for 96 hrs relative to control
T2 sequence (whole entry): T1 sequence (whole entry) with P352L, R916C

| Activity [1] | Activity [2] | Structure (SMILES) |
| --- | --- | --- |
| 4% | 33% | COC[C@H]1O[C@@H]2O[C@H]3[C@H](OC)[C@@H](OC)[C@@H](O[C@H]4[C@H](OC)[C@@H](OC)[C@@H](O[C@H]5[C@H](OC)[C@@H](OC)[C@@H](O[C@H]6[C@H](OC)[C@@H](OC)[C@@H](O[C@H]7[C@H](OC)[C@@H](OC)[C@@H](O[C@H]8[C@H](OC)[C@@H](OC)[C@@H](O[C@H]1[C@H](OC)[C@H]2OC)O[C@@H]8COC)O[C@@H]7COC)O[C@@H]6COC)O[C@@H]5COCc1cn(CCCCCCN[C@@H]2[C@@H](O)[C@@H](O)[C@H](O)[C@H]5COC(=O)N52)nn1)O[C@@H]4COC)O[C@@H]3COC |
| 3% | 26% | CC(C)(C)OC(=O)NCCCCCCCCCN[C@@H]1[C@@H](O)[C@@H](O)[C@H](O)[C@H]2COC(=O)N21 |
